In patent US20040162275A1, “Multivalently interactive molecular assembly, capturing agent, drug carrier, calcium chelating agent, and drug enhancer” (Nobuhiko Yui, priority 2002, published 2004):

Biological target: concanavalin A (ConA) (Canavalia ensiformis, UniProt P02866)
Assay: Hemagglutination inhibition test, Mal-polyrotaxane conjugate and ConA (Example 11)
Type: cell-based
Conditions: rat erythrocyte, ConA at 4-fold minimum hemagglutinating concentration, maltose basis, FIG. 19
Method: Next, hemagglutination inhibition test was performed to evaluate the interaction between Mal-polyrotaxane conjugate and concanavalin A (ConA), then 20 μL of diluted Mal-polyrotaxane conjugate in saline and 20 μL of solution of ConA in saline were dispensed in a 96well plate (U-bottom), stirred, and then incubated at 37° C. for 30 minutes. Next, 40 μL of 2% (v/v) rat erytlirocyte was added to the plate, and the mixture was stirred and then incubated at 37° C. for 30 minutes. The precipitation of erythrocyte was monitored to determine hemagglutination, and the minimum concentration to inhibit hemagglutination was determined. The ConA concentration was set up at a 4-fold higher value than the minimum concentration of ConA at which hemagglutination occurs.
Relative MIC=(Min. inhibitory conc. of maltose)/(Min inhibitory conc. of maltose in the conjugate)

## OC[C@H]1O[C@H](O[C@H]2[C@H](O)[C@@H](O)C(O)O[C@@H]2CO)[C@H](O)[C@@H](O)[C@@H]1O (mixture of isomers) [Mal, maltose]
  minimum concentration to inhibit hemagglutination: 9.1 mM
